Source: US20100063139A1, “USE IN A COSMETIC COMPOSITION OF LIPOCHROMAN-6 TO ENHANCE THE RADIANCE OF THE COMPLEXION OF THE SKIN, ESPECIALLY THE SKIN OF THE FACE” (LVMH RECHERCHE, priority 2008, published 2010)
Where “and” joins values, the source holds several entries; their conditions need not be identical. Equal values may be shown once.

Key:
Format in all cases: cell-based
gene MsrA (msra) = assay: Quantitative RT-PCR (RT-Q-PCR) of msra gene expression in normal human epidermal keratinocytes; settings: 24 h, NHK; for % Control (msra/G3PDH): control = 100; for Mb Cycles (msra): triplicate PCR cycle numbers
Experimental: (§1) The effect of lipochroman-6 on the basal expression of genes coding for the proteins MsrA and MsrB is evaluated by the method of quantitative RT-PCR (real-time PCR; RT-Q-PCR).
(§2) The model selected is that of normal human epidermal keratinocytes (NHK) cultivated in vitro.
(§3) Type: normal human epidermal keratinocytes (NHK)
(§4) Test medium: SFM medium without EGF and without PE (SFM-PE-EGF)
(§5) Lipochroman-6: stock solution at 10 mg/ml in ethanol, diluted in test medium at concentrations of 0.01 mg/ml and 0.005 mg/ml.
(§6) The keratinocytes are seeded and pre-cultured for 24 hours in complete SFM culture medium (24-well plates) and then placed in SFM-PE-EGF medium.
(§7) At confluence, the cells are treated or not (control) with the test product and are cultured for 24 h at 37° C. and 5% CO2. Each treatment is carried out in triplicate. The culture supernatants are then harvested and the cell layers are rinsed with PBS solution (Invitrogen), and then 300 μl of tri-reagent (Sigma) are added. The plates are subsequently frozen at −80° C.
(§8) The expression of the genes msra and msrb is evaluated by RT-Q-PCR on the basis of the messenger RNA (mRNA) extracted from the cell layers of each treatment. For each treatment, the three samples are combined into one prior to the extraction of the RNA.
(§9) The main steps of the protocol are as follows: • Extraction of the total RNA using tri-reagent, according to the protocol of the supplier. • Removal of traces of potentially contaminating DNA by treatment with the DNA-free system (Ambion). • Implementation of the reverse transcription reaction in the presence of the primer oligo(dT) and the enzyme Superscript II (Gibco).
(§10) The PCR reactions are carried out with the aid of the following primers: […]
(§11) The PCR (polymerase chain reaction) reactions are carried out by quantitative PCR with the Light Cycler system (Roche Molecular Systems Inc.) according to the procedures recommended by the supplier. To perform correctly, this analytical system requires prior development of the conditions of analysis of the different primers. This system is formed of two main components: an optimized thermocycler, which allows extremely rapid heat transfers, and a fluorimeter, which continuously measures the fluorescence intensity incorporated in the DNA (detection at 521 nm). The reaction mixture (10 μl final) for each sample is as follows: • 2.5 μl of cDNA diluted to 1/10th • primers of the different markers used • reaction mixture (Roche) containing the enzyme taq DNA polymerase, the marker SYBR Green I (a fluorophore which is integrated into the double-stranded DNA in the course of the elongation step) and MgCl2.
(§12) The incorporation of fluorescence into the amplified DNA is measured continuously during the PCR cycles. […] The number of cycles is determined on the basis of the “exit” points of the fluorescence curves. For a given marker analysed, the later the exit of a sample (high number of cycles) the lower the initial number of copies of the mRNA. The relative expression (RE) value is expressed in arbitrary units (AU) in accordance with the following formula: (½^number of cycles)×10^6.

[1] = tested on: methionine sulphoxide reductase (Msr); assay: Msr activity in protein extracts of treated human keratinocytes (N-acetyl-(3H)-methionine-R,S sulphoxide substrate); settings: dose of 0.05%; human keratinocytes in culture, 24 h treatment
Experimental: The keratinocytes are obtained from grafts of skin originating from abdomens of healthy donors aged 47 years.
Lipochroman-6 powder (supplier: Lipotec) is first diluted in 20 μl of absolute ethanol. Then a stock solution at 10 mg/ml in the K-SFM-S medium is prepared.
An intermediate solution at 1 mg/ml (dilution 20 μl in 200 μl of K-SFM-S medium) is prepared from the lipochroman-6 stock solution.
The dilutions are carried out in the K-SFM-S medium on the basis of the intermediate solution at 1 mg/ml.
The medium is drawn off from the cell flasks (passage P3) and replaced with the medium containing the different dilutions of actives. After 24 hours of treatment, the cells are washed with PBS buffer and then treated with trypsin. The cells are finally counted with a NucleoCounter from Chemometec (Bioblock). […]
The Msr activity is measured on the basis of the protein extracts by using the substrate N-acetyl-(^3H)-methionine-(R, S) sulphoxide in a reaction mixture of 30 μl containing Tris-HCl pH 7.5, 25 mM, MgCl2 10 mM, DTT 15 mM, at 37° C. […]
The required quantity of proteins is withdrawn and made up with water to a reaction volume of 20.8 μl in a 2 ml Eppendorf tube stored in ice. […]
Following centrifugation at 15 000 g for 5 minutes at ambient temperature, 1 ml of the upper, organic phase is withdrawn and is counted in a scintillation vial and admixed with 2 ml of Sigma Fluor scintillant. […]

[2] = tested on: normal human keratinocytes (NHK); assay: Immunostaining (DNPH/anti-DNP) of oxidized proteins in normal human keratinocytes, confocal image analysis; settings: for DNP marking/No. of cells / DNP marking/surface area measured / Surface area DNP marking: 48 h; for Proportion of oxidized proteins/cells, KHN 0002: donor KHN 0002; for Proportion of oxidized proteins/cells, KHN 9726: donor KHN 9726; for Proportion of oxidized proteins/cells, Mean: mean of two donors
Experimental: Normal human keratinocytes (NHK) isolated from harvesting of human skin carried out on two different donors (labelled KHN002 and KHN 9726 hereinafter) are cultured in T75 flasks in complete KSFM medium (KSFMc) (Invitrogen GIBCO) at 37° C. and 5% CO2 and are seeded at 20 000 cells per well in 8-well Lab-Tek II culture systems (Nalge Nunc International).
After 48 h of culture, the cells are treated with the treatment solutions (see below).
A 0.004% weight/volume lipochroman-6 solution is prepared (solution A).
This is done by dissolving 20 mg of lipochroman-6 powder (supplier: Lipotec) in 2 ml of ethanol (solution at 10 mg/ml). This solution is diluted (40 μl of the stock solution in 10 ml of KSFm medium) to give solution A.
The treatment solutions are prepared by diluting solution A prepared above in the KSFMc medium, to give the correct percentage of lipochroman-6.
Treatments carried out on 3 wells per cell type: • control: KSFMc • solvent control: 0.1% solution of ethanol in KSFMc medium • 0.001% lipochroman • 0.002% lipochroman
After 48 hours of treatment, the KSFMc is drawn off. The cells are rinsed with phosphate buffer (PBS) (PBS tablets, Invitrogen GIBCO), then fixed with formalin (formalin solution 10% neutral buffered, Sigma) for 10 minutes at ambient temperature. After rinsing with PBS, the culture chambers are filled with 0.1% triton solution (Triton X-100, Sigma) for 10 minutes, then rinsed with PBS.
The subsequently disassembled culture chambers and the slides are immersed in a solution of 2,4-dinitrophenylhydrazine (300 mg of DNPH (Fluka)) in an ethanol/sulphuric acid (98.5 ml/1.5 ml) mixture for 30 minutes.
The dinitrophenyl (DNP) groups fixed to the oxidized proteins are recognized by a primary anti-DNP antibody.
For this purpose, in a first step, the slides are covered with a solution of primary antibody (monoclonal mouse anti-DNP antibody, Sigma), diluted to 1/500th in a 1% BSA/PBS solution, and are incubated for 60 minutes in an oven at ambient temperature and then rinsed with a 0.1% Tween-PBS solution (Tween20, Merck). In a second step, the cells are covered with a secondary antibody solution (Alexafluor 546 goat anti-mouse, Invitrogen) in a 1% BSA/PBS solution, and are incubated away from the light for 60 minutes. The slides are subsequently rinsed with PBS-Tween and then with PBS.
The photographs are made by confocal microscopy (Axioplan microscope from Zeiss and krypton-argon laser from BioRad) with the aid of the LaserSharp 2000 software (BioRad). For each condition, three photographs are made with the ×40 lens, according to the same acquisition parameters (gain, iris).
In practice, an excitation fluorescence at 546 nm is applied by the confocal laser to the cells. The fluorochrome Alexafluor 546, which represents the oxidized proteins, emits fluorescence at 573 nm, which is recovered by a specific filter and can be observed. The measured fluorescence is therefore directly proportional to the amount of oxidized proteins.
The photographs are analysed with the aid of the Leica QWin image analysis software. A program allows the DNPH staining to be quantified in order to evaluate the level of oxidized proteins and the number of cells.
The program detects the fluorescent staining of the oxidized proteins. A detection zone which is as representative as possible (number, size, cell density, intensity of marking) is delimited. The fluorescence of the oxidized proteins is measured in the delimited zone, and the cells in the same zone are numbered by counting of the cell nuclei (see FIGS. 2a, 2b, 2c, 2d and 2e).
The effect of lipochroman-6 on the oxidation of proteins is measured on the two types of normal human keratinocytes (NHK). This is done by estimating the surface area of staining of the oxidized proteins, the surface area of the measurement zone and the number of cells in the measurement surface area, using an image processing system.

gene MsrB (msrb) = assay: Quantitative RT-PCR (RT-Q-PCR) of msrb gene expression in normal human epidermal keratinocytes; settings: 24 h, NHK; for % Control (msrb/G3PDH): control = 100; for Mb Cycles (msrb): triplicate PCR cycle numbers
Experimental: as §1, §2, §3, §4, §5, §6, §7, §8, §9, §10, §11, §12

COc1cc2c(cc1O)CCC(C)(C)O2 [Lipochroman-6]
Mb/G3PDH (msra/G3PDH) (gene MsrA (msra); 0.005 mg/ml): 4.14 × 10^−3
RE*Mb (AU) (msra relative expression) (gene MsrA (msra); 0.005 mg/ml): 8.251 × 10^−3 AU
% Control (msra/G3PDH) (gene MsrA (msra); 0.005 mg/ml): 116%
Mb Cycles (msra) (gene MsrA (msra); 0.005 mg/ml): 26.84 and 26.91 and 26.81
Mb/G3PDH (msra/G3PDH) (gene MsrA (msra); 0.01 mg/ml): 4.42 × 10^−3
RE*Mb (AU) (msra relative expression) (gene MsrA (msra); 0.01 mg/ml): 8.66 × 10^−3 AU
% Control (msra/G3PDH) (gene MsrA (msra); 0.01 mg/ml): 124%
Mb Cycles (msra) (gene MsrA (msra); 0.01 mg/ml): 26.83 and 26.79 and 26.73
Increase of Msr activity [1]: 44%
DNP marking/No. of cells ([2]; 0.001% lipochroman): 82.1 B
DNP marking/surface area measured ([2]; 0.001% lipochroman): 28.7% D
Surface area DNP marking ([2]; 0.001% lipochroman): 3776 C
Proportion of oxidized proteins/cells, KHN 0002 ([2]; 0.001% lipochroman-6, 48 h): 76.3
Proportion of oxidized proteins/cells, KHN 9726 ([2]; 0.001% lipochroman-6, 48 h): 88
Proportion of oxidized proteins/cells, Mean ([2]; 0.001% lipochroman-6, 48 h): 82.1
DNP marking/No. of cells ([2]; 0.002% lipochroman): 52.0 A
DNP marking/surface area measured ([2]; 0.002% lipochroman): 18.4% B
Surface area DNP marking ([2]; 0.002% lipochroman): 2415 B
Proportion of oxidized proteins/cells, KHN 0002 ([2]; 0.002% lipochroman-6, 48 h): 60.9
Proportion of oxidized proteins/cells, KHN 9726 ([2]; 0.002% lipochroman-6, 48 h): 43
Proportion of oxidized proteins/cells, Mean ([2]; 0.002% lipochroman-6, 48 h): 52
Mb/G3PDH (msrb/G3PDH) (gene MsrB (msrb); 0.005 mg/ml): 1.76 × 10^−2
RE*Mb (AU) (msrb relative expression) (gene MsrB (msrb); 0.005 mg/ml): 3.516 × 10^−2 AU
% Control (msrb/G3PDH) (gene MsrB (msrb); 0.005 mg/ml): 127%
Mb Cycles (msrb) (gene MsrB (msrb); 0.005 mg/ml): 24.68 and 24.86 and 24.75
Mb/G3PDH (msrb/G3PDH) (gene MsrB (msrb); 0.01 mg/ml): 2.05 × 10^−2
RE*Mb (AU) (msrb relative expression) (gene MsrB (msrb); 0.01 mg/ml): 4.018 × 10^−2 AU
% Control (msrb/G3PDH) (gene MsrB (msrb); 0.01 mg/ml): 148%
Mb Cycles (msrb) (gene MsrB (msrb); 0.01 mg/ml): 24.62 and 24.60 and 24.49
